Measurements as given in PubChem BioAssay AID1963856 (Molecular Pharmacology Branch, DTP, NCI, 2024).
Calls of active or inactive are those of the source. Rule for the calls: active = viability on the fitted dose curve at most 10% of control; inactive = the rest.

Tested on: LG0567-F671-PDC KRAS tumor spheroid viability
Test: Anticancer human tumor LG0567-F671-PDC patient-derived lung adenocarcinoma cell line growth inhibition [KRAS2]
Conditions: spheroids with HUVEC and MSC; for IC50: curve of first compound; for viability, T/C: stronger effect = lower value
Method in brief: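 KRAS-mutant tumor cells were grown as spheroids with HUVEC endothelial cells and human MSCs as stroma. Targeted agents were tested alone and with KRAS pathway inhibitors. Doses started at or near clinical Cmax, or 10 microM, descending half-log.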

[1] = second compound 0.1 µM, first compound 0.0316 µM
[2] = second compound 0.1 µM, first compound 0.1 µM
[3] = second compound 0.1 µM, first compound 0.316 µM
[4] = second compound 0.1 µM, first compound 1 µM
[5] = second compound 0.1 µM, first compound 3.16 µM
[6] = second compound 0.1 µM, first compound 10 µM
[7] = second compound 0.316 µM, first compound 0.0316 µM
[8] = second compound 0.316 µM, first compound 0.1 µM
[9] = second compound 0.316 µM, first compound 0.316 µM
[10] = second compound 0.316 µM, first compound 1 µM
[11] = second compound 0.316 µM, first compound 3.16 µM
[12] = second compound 0.316 µM, first compound 10 µM
[13] = second compound 1 µM, first compound 0.0316 µM
[14] = second compound 1 µM, first compound 0.1 µM
[15] = second compound 1 µM, first compound 0.316 µM
[16] = second compound 1 µM, first compound 1 µM
[17] = second compound 1 µM, first compound 3.16 µM
[18] = second compound 1 µM, first compound 10 µM
[19] = second compound 3.16 µM, first compound 0.0316 µM
[20] = second compound 3.16 µM, first compound 0.1 µM
[21] = second compound 3.16 µM, first compound 0.316 µM
[22] = second compound 3.16 µM, first compound 1 µM
[23] = second compound 3.16 µM, first compound 3.16 µM
[24] = second compound 3.16 µM, first compound 10 µM
[25] = second compound 10 µM, first compound 0.0316 µM
[26] = second compound 10 µM, first compound 0.1 µM
[27] = second compound 10 µM, first compound 0.316 µM
[28] = second compound 10 µM, first compound 1 µM
[29] = second compound 10 µM, first compound 3.16 µM
[30] = second compound 10 µM, first compound 10 µM
[31] = second compound 0.1 µM, first compound 0.01 µM
[32] = second compound 0.316 µM, first compound 0.01 µM
[33] = second compound 1 µM, first compound 0.01 µM
[34] = second compound 3.16 µM, first compound 0.01 µM
[35] = second compound 10 µM, first compound 0.01 µM
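Throughout, for IC50: drug exposure lasted seven days after spheroids formed for three days.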
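Throughout, for viability, T/C: drug exposure lasted seven days after spheroids formed for three days; 100% = DMSO vehicle control viability.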

Compound | IC50 (second compound 0.1 µM) [nM] | IC50 (second compound 0.316 µM) [nM] | IC50 (second compound 1 µM) [nM] | IC50 (second compound 3.16 µM) [nM] | IC50 (second compound 10 µM) [nM] | viability, T/C [1] [%] | viability, T/C [2] [%] | viability, T/C [3] [%] | viability, T/C [4] [%] | viability, T/C [7] [%] | viability, T/C [8] [%] | viability, T/C [9] [%] | viability, T/C [10] [%] | viability, T/C [14] [%] | viability, T/C [15] [%] | viability, T/C [16] [%] | viability, T/C [19] [%] | viability, T/C [20] [%] | viability, T/C [21] [%] | viability, T/C [22] [%] | other results
O=C(c1cc(Cc2n[nH]c(=O)c3ccccc23)ccc1F)N1CCN(C(=O)C2CC2)CC1 + CC1OCC2(CCN(c3cnc(Sc4ccnc(N)c4Cl)c(N)n3)CC2)C1N | > 10000 | < 31.6 | < 31.6 | < 31.6 | < 31.6 | 63.8 | 54 | 60.3 | 59.7 | 37.9 | 35.5 | 32.3 | 32.9 | 40 | 35.5 | 29.8 | 20.9 | 20.8 | 24.8 | 26 | viability, T/C [5]: 54.4%; viability, T/C [6]: 53.2%; viability, T/C [11]: 33.5%; viability, T/C [12]: 38.2%; outcome [13]: inactive; viability, T/C [17]: 32.8%; viability, T/C [18]: 28.6%; viability, T/C [23]: 23.9%; viability, T/C [24]: 23.8%; viability, T/C [25]: 10.2%; viability, T/C [26]: 11%; viability, T/C [27]: 12.2%; viability, T/C [28]: 11.8%; viability, T/C [29]: 14.2%; viability, T/C [30]: 17.4%
COc1cc(Nc2ncc3c(n2)-c2ccc(Cl)cc2C(c2c(F)cccc2OC)=NC3)ccc1C(=O)O + CC1OCC2(CCN(c3cnc(Sc4ccnc(N)c4Cl)c(N)n3)CC2)C1N | 204 | < 31.6 | < 31.6 | < 31.6 | < 31.6 | 58.7 | 49.6 | 45.7 | 47.1 | 25.7 | 26 | 21.7 | 22.8 | 19.2 | 18.1 | 18.5 | 12.1 | 8.31 | 8.93 | 8.9 | viability, T/C [5]: 40.3%; viability, T/C [6]: 31.7%; viability, T/C [11]: 23.8%; viability, T/C [12]: 18.8%; viability, T/C [13]: 17.6%; viability, T/C [17]: 17.2%; viability, T/C [18]: 14.9%; viability, T/C [23]: 4.29%; viability, T/C [24]: 5.34%; viability, T/C [25]: 4.83%; viability, T/C [26]: 3.93%; viability, T/C [27]: 3.68%; viability, T/C [28]: 3.68%; viability, T/C [29]: 3.65%; viability, T/C [30]: 4.21%
COc1cc(Nc2ncc3c(n2)-c2ccc(Cl)cc2C(c2c(F)cccc2OC)=NC3)ccc1C(=O)O |  |  |  |  |  |  |  |  |  |  |  |  |  |  |  |  |  |  |  |  | viability, T/C (compound 0.0316 µM): 92.8% [middle of 5 runs]; viability, T/C (compound 0.316 µM): 74% [middle of 5 runs]; viability, T/C (compound 3.16 µM): 67.6% [middle of 5 runs]; viability, T/C (compound 10 µM): 48.9% [middle of 5 runs]
CC1COCCN1c1cc(-c2ccnn2C)c2ccnc(-c3ccn[nH]3)c2n1 (centres undefined) + C=CC(=O)N1CCN(c2nc(=O)n(-c3c(C)ccnc3C(C)C)c3nc(-c4c(O)cccc4F)c(F)cc23)C(C)C1 | < 10 | < 10 | < 10 | < 10 | < 10 | 18.8 | 16 | 14.2 | 11.2 | 18.6 | 14.2 | 11 | 9.77 | 14.3 | 11.3 | 9.8 | 14.9 | 12.8 | 11.3 | 9.54 | viability, T/C [31]: 23.9%; viability, T/C [5]: 10.8%; viability, T/C [32]: 21.8%; viability, T/C [11]: 10.6%; viability, T/C [33]: 21.3%; viability, T/C [13]: 19.3%; viability, T/C [17]: 12.5%; viability, T/C [34]: 15.7%; viability, T/C [23]: 10.3%; viability, T/C [35]: 19.8%; viability, T/C [25]: 17.4%; viability, T/C [26]: 15.5%; viability, T/C [27]: 14.9%; viability, T/C [28]: 12.2%; viability, T/C [29]: 12.8%
CCN1CCN(Cc2ccc(Nc3ncc(F)c(-c4cc(F)c5nc(C)n(C(C)C)c5c4)n3)nc2)CC1 + C=CC(=O)N1CCN(c2nc(=O)n(-c3c(C)ccnc3C(C)C)c3nc(-c4c(O)cccc4F)c(F)cc23)C(C)C1 | < 3.16 | < 3.16 | < 3.16 | < 3.16 | < 3.16 | 17.2 | 18.7 | 19.8 | 24.2 | 16.3 | 16.4 | 18.6 | 25.7 | 17.3 | 22 | 23.7 | 18.6 | 15.9 | 20.4 | 33.8 | viability, T/C (second compound 0.1 µM, first compound 0.00316 µM): 21.6%; viability, T/C [31]: 21.6%; viability, T/C (second compound 0.316 µM, first compound 0.00316 µM): 21.3%; viability, T/C [32]: 19.6%; viability, T/C (second compound 1 µM, first compound 0.00316 µM): 21.3%; viability, T/C [33]: 22.3%; viability, T/C [13]: 16.8%; viability, T/C (second compound 3.16 µM, first compound 0.00316 µM): 20.4%; viability, T/C [34]: 21.1%; viability, T/C (second compound 10 µM, first compound 0.00316 µM): 22.3%; viability, T/C [35]: 20.6%; viability, T/C [25]: 22.3%; viability, T/C [26]: 20.6%; viability, T/C [27]: 27.9%; viability, T/C [28]: 12.8%
Cn1nccc1Nc1nccc(-c2cc3c(s2)C(C)(C)N(CCN2CCOCC2)C3=O)n1 + C=CC(=O)N1CCN(c2nc(=O)n(-c3c(C)ccnc3C(C)C)c3nc(-c4c(O)cccc4F)c(F)cc23)C(C)C1 | < 31.6 | < 31.6 | < 31.6 | < 31.6 | < 31.6 | 21.2 | 23.1 | 19.2 | 20.8 | 22.2 | 19.8 | 19.9 | 17.8 | 21.8 | 21 | 20.9 | 22.2 | 18.1 | 20.3 | 12.2 | viability, T/C [5]: 14.1%; viability, T/C [6]: 16.3%; viability, T/C [11]: 15.6%; viability, T/C [12]: 17.2%; viability, T/C [13]: 23.1%; viability, T/C [17]: 15%; viability, T/C [18]: 20.8%; viability, T/C [23]: 14%; viability, T/C [24]: 20.9%; viability, T/C [25]: 20.5%; viability, T/C [26]: 19.2%; viability, T/C [27]: 14.5%; viability, T/C [28]: 12.2%; viability, T/C [29]: 15.2%; viability, T/C [30]: 26.8%
